Substitutions are numbered along the chain they refer to. Active and inactive are the calls of the source. No cut-off for these calls is given here.
Key:
[1] = tested on: T1, General amino-acid permease GAP1 (Saccharomyces cerevisiae), P19145 [G390C]; assay: Induction of yeast Gap1 G390C mutant-mediated trehalose activation at 2 mM in presence of 10 mM MTSEA treated before compound addition
T1 sequence (whole entry): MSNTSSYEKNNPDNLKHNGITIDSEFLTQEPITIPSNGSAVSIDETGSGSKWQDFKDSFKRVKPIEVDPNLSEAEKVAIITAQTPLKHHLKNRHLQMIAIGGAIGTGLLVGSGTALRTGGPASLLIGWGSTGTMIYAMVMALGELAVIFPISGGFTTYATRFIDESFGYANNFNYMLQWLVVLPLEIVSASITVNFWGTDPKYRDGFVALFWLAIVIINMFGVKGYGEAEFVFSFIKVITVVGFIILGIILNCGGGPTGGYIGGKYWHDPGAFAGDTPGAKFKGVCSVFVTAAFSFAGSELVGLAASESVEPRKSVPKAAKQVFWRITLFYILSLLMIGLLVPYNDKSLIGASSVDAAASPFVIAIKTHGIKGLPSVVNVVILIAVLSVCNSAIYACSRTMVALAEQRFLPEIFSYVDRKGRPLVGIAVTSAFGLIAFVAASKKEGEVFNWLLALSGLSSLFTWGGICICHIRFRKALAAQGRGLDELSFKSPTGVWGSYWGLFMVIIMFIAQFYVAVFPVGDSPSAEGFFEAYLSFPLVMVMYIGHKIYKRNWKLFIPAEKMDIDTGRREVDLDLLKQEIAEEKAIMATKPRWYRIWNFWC

[2] = tested on: T2, General amino-acid permease GAP1 (Saccharomyces cerevisiae), P19145 [S398C]; assay: Induction of yeast Gap1 S398C mutant-mediated trehalose activation at 10 mM
T2 sequence (whole entry): T1 sequence (whole entry) with C390G, S398C

[3] = tested on: General amino-acid permease GAP1 (Saccharomyces cerevisiae), P19145 [I394C]; assay: Inhibition of yeast Gap1 I394C mutant-mediated amino acid uptake at 10 mM
[4] = tested on: T3, General amino-acid permease GAP1 (Saccharomyces cerevisiae), P19145 [A393C]; assay: Induction of yeast Gap1 A393C mutant-mediated trehalose activation at 10 mM
T3 sequence (whole entry): T1 sequence (whole entry) with C390G, A393C

[5] = tested on: T4, General amino-acid permease GAP1 (Saccharomyces cerevisiae), P19145 [I382C]; assay: Activation of yeast Gap1 I382C mutant-mediated amino acid uptake at 10 mM
T4 sequence (whole entry): T1 sequence (whole entry) with I382C, C390G

General amino-acid permease GAP1 (Saccharomyces cerevisiae), P19145 [I394C], sequence (P19145 whole entry I394C): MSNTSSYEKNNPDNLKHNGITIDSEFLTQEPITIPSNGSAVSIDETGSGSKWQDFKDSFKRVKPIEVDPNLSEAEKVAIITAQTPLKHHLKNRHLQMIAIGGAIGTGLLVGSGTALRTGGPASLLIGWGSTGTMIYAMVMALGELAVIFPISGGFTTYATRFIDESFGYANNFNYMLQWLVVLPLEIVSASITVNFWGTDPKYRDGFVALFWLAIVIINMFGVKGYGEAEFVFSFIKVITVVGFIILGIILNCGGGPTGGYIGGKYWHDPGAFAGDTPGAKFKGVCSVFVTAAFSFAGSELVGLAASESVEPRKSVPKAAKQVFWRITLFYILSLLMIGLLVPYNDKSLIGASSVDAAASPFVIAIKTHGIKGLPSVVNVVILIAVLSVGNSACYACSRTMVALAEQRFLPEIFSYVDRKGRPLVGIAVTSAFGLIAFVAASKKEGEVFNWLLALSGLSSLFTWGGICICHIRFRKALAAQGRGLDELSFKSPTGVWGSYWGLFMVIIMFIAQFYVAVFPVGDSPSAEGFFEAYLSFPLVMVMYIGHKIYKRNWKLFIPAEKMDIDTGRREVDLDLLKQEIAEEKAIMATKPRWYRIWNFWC

NC(=O)NCCC[C@H](N)C(=O)O
inhibition [1]: Active | Activity [2]: inactive | inhibition [3]: Active | Activity [4]: inactive | Activity [5]: inactive
